Compound	melting point [°C]
COc1cc2c(cc1OC)CN1C(=O)C(C)NC(=O)C1C2 (centres undefined)	234
CCOC(=O)c1c(C)n[nH]c1C	118 to 119
CCN(CC)Cc1c(N)c2ccccc2oc1=O	133
COc1ccc(C(=O)C2=NN(c3ccccc3)C3C(=O)N(c4cc(Cl)ccc4Cl)C(=O)C23)cc1 (centres undefined)	240
O=S(=O)(O)CC(O)CNC(CO)(CO)CO (centres undefined)	220 to 221
Nc1cc(Cl)nc(N)n1	201
O=[N+]([O-])OC(CO)CO	54
CCC1(O)CCC2C3CCC4=CC(=O)CCC4C3CCC21C (centres undefined)	140
C/C(OCCc1ccc([N+](=O)[O-])cc1)=C(\C#N)c1ccccc1	138
O=C(O)C=CC(=O)c1ccccc1	91 to 96
CCOC(=O)C(C#N)=Cc1ccc(-c2ccccc2)o1	116 to 117
CCOC(=O)c1c(C)cc(O)nc1O	219
O=C(O)c1ccnc(Cl)c1	231
CC12CCC(C(=O)O)(OC1=O)C2(C)C (centres undefined)	200
CC(C)CCCCCCCOC(=O)CCCCC(=O)OCCCCCCCC(C)C	27.4
Cc1c(Br)cc([N+](=O)[O-])cc1Br	56
N#CSc1ccc(N)c(C(=O)O)c1	165 to 168
CCCCCCCCc1ccc(/N=N/c2ccc(OC(=O)CC)cc2)cc1	60 to 62
O=C1CCC(c2ccc(NC(=O)c3cccc(C(F)(F)F)c3)cc2)=NN1	234 to 235
Nc1ccc(Cl)c(Cl)c1Cl	73
O=C(O)c1ccc2c(c1)CCCN2	168 to 170
O=C(O)CNC(CO)(CO)CO	187
O=Cc1ccsc1Sc1ccc(Cl)cc1	57 to 60
CC1(CO)CN(c2ccccc2)NC1=O (centres undefined)	125
CCCCCCCCCCCCCCCC(=O)OCC(COP(=O)([O-])OCC[N+](C)(C)C)OC(=O)CCCCCCCCCCCCCCC (centres undefined)	229 to 230
COC(=O)c1ccc(CBr)cc1	56

Compound	melting point [°C]
CSc1ncccc1C(=O)Cl	94
COc1ccc(Cn2ncc(Cl)c(Cl)c2=O)cc1	117 to 120
Cc1ccc(N(CCO)CCO)cc1N=Nc1ccc([N+](=O)[O-])cc1	160
CCCCOC(=O)COc1cc(Cl)c(Cl)cc1Cl	28.5
Cc1ccc(-c2ccccc2)cc1N	58 to 60
O=C1NN=C(C(F)(F)F)C1=NNc1ccc(Br)cc1	212
Cc1nc2ccccc2n1CCc1nnc(SCc2ccccc2)n1-c1ccccc1	130
Cc1ccc(-c2cc(N)n(-c3ccccc3)n2)cc1	173 to 176
CCCC(=O)c1cc2ccccc2oc1=O	93 to 94
CCC12CC3CC(C1)CC(C(=O)O)(C3)C2	94 to 96
O=C1c2ccccc2C(=O)C1C(=O)C(c1ccccc1)c1ccc(Cl)cc1 (centres undefined)	140
CCCCCCCCCCOC(C)=O	-15
CCOC(=O)C(F)(F)F	-78
Cc1c(C)c2c(c3c1CC3)CC2	105 to 116
N#Cc1ccc(N)cc1C#N	181
N#Cc1c(N)cccc1Cl	135 to 137
Oc1ccc(SC(F)(F)F)cc1	59
O=C(O)C1CCN(c2ncnc3ccsc23)CC1	248 to 249
NC(=NO)c1ccc(OC(F)(F)F)cc1	113 to 115
NC(=O)Nc1ccc(C2=NNC(=O)CC2)cc1	215 to 218
O=[N+]([O-])c1ccc2c(c1)=NC(=c1ccc(=C3N=c4cc([N+](=O)[O-])ccc4=C3O)cc1)C=2O	360
Cc1csc2sc(C=O)c(C)c12	147 to 149
Nc1cc(C(=O)O)ccc1C(=O)O	324
NNC(=O)c1cccc(OCc2ccccc2)c1	113 to 115
NCc1ccc2c(Br)cccc2c1	111 to 112
CCCC(C)OC(C)=O (centres undefined)	-100

Compound	melting point [°C]
Nc1ccc(C(=O)NC(CCC(=O)O)C(=O)O)cc1 (centres undefined)	173
Cc1cc2cc([N+](=O)[O-])ccc2[nH]1	173 to 178
CSCCC(NC(=O)c1ccccc1)C(=O)O (racemic)	150 to 154
COc1ccc(C)cc1	-32
Cc1cc(C)c(C(=O)O)c(C)n1	130 to 160
Cc1cccc(/N=N/c2c(N)nn3c(-c4ccccc4)cc(=O)[nH]c23)c1	296
CC(C)(NC(=O)OCc1ccccc1)C(=O)O	77 to 80
O=[N+]([O-])c1ccccc1-n1cccc1	59
CCCN(CCC)c1c([N+](=O)[O-])cc(C)cc1[N+](=O)[O-]	80
S=c1cn[nH]c(=S)[nH]1	209 to 210
O=CC(Cl)C=O	140 to 145
O=C(C=CC(=O)Oc1ccccc1)Oc1ccccc1	73
Cc1c(C(C)C2NCC(C)CC2O)ccc2c1CC1C2CC=C2CC(O)CCC21C (centres undefined)	206
O=C(c1ccccc1)C1CNc2cc3c(cc2C1)CC(C(=O)c1ccccc1)CN3 (centres undefined)	209
O=C(O)c1cc(O)cc(C(=O)O)c1	293
O=C(Cl)c1ccc2noc(-c3ccc(Cl)cc3)c2c1	180
O=C1CCCN1C1CCCCC1	13
C=CC(O)COS(=O)(=O)c1ccc(C)cc1 (centres undefined)	57 to 63
CCCCCCNC(=O)COC(=O)c1ccccc1	130
Nc1c(Cl)c(F)nc(OCC(=O)O)c1Cl	232
O=C1OC(c2ccccc2)=NC1=Cc1ccc(-c2ccccc2)o1	142 to 143
Oc1ccc(F)c(F)c1F	32
COc1c(Cl)cc([N+](=O)[O-])cc1Cl	97 to 100
CCCc1cc(C(N)=S)ccn1	137
O=c1n(CCO)c(=O)n(CCO)c(=O)n1CCO	138
CN1CCN(c2cccc(N)c2)CC1	98 to 99

Compound	melting point [°C]
Cc1nc(-c2ccc(C(F)(F)F)cc2)sc1S(=O)(=O)Cl	93 to 94
CNC(=O)Oc1cc(C)cc(C(C)C)c1	87
CC(C)(C)OC(=O)N[C@H](COCc1ccccc1)C(=O)O	61.5
COc1ccc(C=O)cc1Br	51
COc1ccc2c(c1)C(=O)C2	55
CC12CCC3C(C(=O)CC4CC(O)CCC43C)C1CCC2=O (centres undefined)	199 to 200
C/C=C/C1Nn2c(nnc2-c2ccc(OC)cc2)S1 (centres undefined)	80 to 82
COC(=O)c1cccc([N+](=O)[O-])c1NC(C)=O	120 to 121
CC(C)C1=C(O)C(=O)C2=C(CC(O)C3C(C)(C)CCCC23C)C1=O (centres undefined)	188
Cn1c(/C(C#N)=N/Nc2ccc(Cl)cc2)nc2ccccc21	215
O=c1cc(C(F)(F)F)nc2scc(-c3ccc(Br)cc3)n12	171
O=C(O)c1ccc(Br)o1	190
BrCCC(c1ccccc1)c1ccccc1	41
CCCCCCNC(=O)C=Cc1ccc(O)c(O)c1	142
CC(C)(C)N(NC(=O)c1ccccc1)C(=O)c1cccc(C#N)c1	174
CN(C)CCC#N	-43
CC1CCc2cc3c(cc2N1)CCC(C)N3C(=O)c1ccccc1 (centres undefined)	145
Fc1ccc(OCC2CO2)cc1 (centres undefined)	19.5
O=C(Cl)CCl	-22
S=C=Nc1cc(Cl)cc(Cl)c1	46
O=C(CCCNC(=O)CCCCC(=O)NCCCC(=O)NO)NO	163
O=c1cc(-c2ccccc2)oc2cccc(O)c12	158
N#Cc1nc[nH]c1C(N)=O	276 to 278
CC(C)S(=O)(=O)CC#N	32 to 34
Cc1nn(C(=O)OC(C)(C)C)c(C)c1I	56 to 58
CCc1cccc(N)c1	-8

Compound	melting point [°C]
CC(=O)OCC(=O)C1(O)CCC2(O)C3CCC4=CC(=O)CCC4(C)C3CCC12C (centres undefined)	236
CC(=O)c1sccc1Br	43
CNCCc1c[nH]c2ccccc12	88
Cc1nc(-c2cccc(Br)c2)cs1	56 to 60
CC(C)(C)c1ccccc1N	-60
O=CC(O)CO (centres undefined)	145
N#CC1C(=O)CC(=O)CC1c1ccccc1 (centres undefined)	177
c1ccc(SCc2ccc(CN3CCOCC3)cc2)cc1	219
CN(C)CCC(c1ccc(Br)cc1)c1ccccn1 (centres undefined)	< 25
COc1cc(OC)nc(NC(=O)NS(=O)(=O)Nc2ccccc2C(=O)C2CC2)n1	162
O=C(O)COc1cc(Cl)c(Cl)cc1Cl	156
Cn1nc(C(C)(C)C)cc1N	157
COc1cc(CC(=O)O)ccc1Br	104
CCOC(=O)Nc1ccc2c(c1)N(C(=O)CCN1CCOCC1)c1ccccc1S2	156
COc1cc(Cl)nc(OC)n1	74 to 76
N#CCc1nc(-c2ccc(Cl)c(Cl)c2)cs1	106 to 107
[O-][N+](=Nc1ccccc1)c1ccc(N=Nc2ccc([N+]([O-])=Nc3ccccc3)cc2)cc1	138 to 139
CC#Cc1cc(C)nc(Nc2ccccc2)n1	133
Nc1nnc(-c2ccc([N+](=O)[O-])o2)s1	280
COC(=O)c1c(O)cc(O)cc1O	177
CC(=O)OCC(OC(C)=O)C(OC(C)=O)C(OC(C)=O)C(OC(C)=O)C(N)=O (centres undefined)	187 to 188
Cc1nc(C)c(Cl)c(O)c1Cl	320
Cc1ccc(S(=O)(=O)NCCN(CCN(CCNS(=O)(=O)c2ccc(C)cc2)S(=O)(=O)c2ccc(C)cc2)S(=O)(=O)c2ccc(C)cc2)cc1	112
CC(Nc1ccccn1)=C(C#N)C(=O)c1ccccc1	151 to 152
O=C(Nc1nc(-c2ccccc2)cs1)c1ccccc1	123

From a melting point compilation (Tetko et al.)
